The results in this text go back to US8198307B2, “Imidazole derivatives having aryl piperidine substituent, method for preparation thereof and pharmaceutical compositions containing same” (Korea Research Institute of Chemical Technology, priority 2007, dated 2012).

A value given as a limit tells only on which side of the number the result lay.

This assay deals with T1, MCH R1 (melanine-concentrating hormone receptor-1) (Homo sapiens, UniProt Q99705).
T1 construct: purchased Euroscreen, Gosselies, Belgium
T1 sequence (Q99705 whole entry, species assumed): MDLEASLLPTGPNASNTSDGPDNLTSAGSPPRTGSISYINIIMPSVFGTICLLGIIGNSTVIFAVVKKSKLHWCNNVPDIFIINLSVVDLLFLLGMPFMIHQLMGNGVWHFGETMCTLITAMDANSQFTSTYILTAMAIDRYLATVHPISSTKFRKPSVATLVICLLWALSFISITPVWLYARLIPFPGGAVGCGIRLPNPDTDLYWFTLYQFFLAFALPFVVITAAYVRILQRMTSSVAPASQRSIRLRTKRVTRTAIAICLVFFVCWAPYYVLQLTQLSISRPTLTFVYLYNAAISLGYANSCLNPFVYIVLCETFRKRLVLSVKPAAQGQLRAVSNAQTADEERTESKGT
In words: Inhibitory effects on MCH R1 binding (Eu-MCH time-resolved fluorescence binding assay). Conditions: concentration inhibiting the binding of MCH (Eu-MCH, 2 nM) to MCH R1 by 50% in vitro; TRF readout; test range 1 nM to 10 μM; read-out: IC50. The method in brief: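 Receptor membranes were incubated 90 min at room temperature with 2 nM Eu-MCH and test compound (1 nM–10 μM final) in 25 mM HEPES pH 7.4, 5 mM MgCl2, 1 mM CaCl2, 0.5% BSA, then filter-washed. Nonspecific binding was defined with 0.5 μM MCH. Time-resolved fluorescence (ex 340/em 615 nm) gave percent inhibition of specific binding.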
`CC(=O)Nc1cccc(C2CCN(CCCn3c(-c4ccc(-c5ccccc5)cc4)nc4ccccc43)CC2)c1` [Example 46, 2-(4-biphenyl)-1-{3-[4-(3-acetylaminophenyl)piperidin-1-yl]propyl}-1H-benzimidazole]: the IC50 stood at 8 nM.

With `CC(=O)Nc1cccc(C2CCN(CCCn3c(-c4ccccc4)nc4nc(C)c(Br)cc43)CC2)c1` [Example 74], the IC50 turned out to be 680 nM.

For `CC(=O)Nc1cccc(C2CCN(CCCn3c(-c4ccccc4)nc4ccc([N+](=O)[O-])cc43)CC2)c1` [Example 32, 2-phenyl-1-{3-[4-(3-acetylaminophenyl)piperidin-1-yl]propyl}-6-nitro-1H-benzimidazole], the IC50 came to 10 nM.

For `CC(=O)Nc1cccc(C2CCN(CCCn3c(-c4ccc(Br)o4)nc4cc(Cl)ccc43)CC2)c1` [Example 118, 5-chloro-2-(5-bromofuran-2-yl)-1-{3-[4-(3-acetamidophenyl)piperidin-1-yl]propyl}-1H-benzimidazole], the IC50 worked out at 20 nM.

As for `CC(=O)Nc1cccc(C2CCN(CCCn3c(-c4ccc([N+](=O)[O-])cc4Cl)nc4ccccc43)CC2)c1` [Example 57, 2-(2-chloro-4-nitrophenyl)-1-{3-[4-(3-acetylaminophenyl)piperidin-1-yl]propyl}-1H-benzimidazole], the IC50 is 37 nM.

For `COc1cccc(-c2nc3ccccc3n2CCCN2CCC(c3cccc(NC(C)=O)c3)CC2)c1` [Example 18, 2-(3-methoxyphenyl)-1-{3-[4-(3-acetylaminophenyl)piperidin-1-yl]propyl}-1H-benzimidazole], the IC50 stood at 7 nM.

For `CC(=O)Nc1cccc(C2CCN(CCCn3c(-c4ccccc4F)nc4ccc(Cl)cc43)CC2)c1` [Example 33, 2-(2-fluorophenyl)-1-{3-[4-(3-acetylaminophenyl)piperidin-1-yl]propyl}-6-chloro-1H-benzimidazole], the IC50 worked out at 148 nM.

For the compound `CC(=O)Nc1cccc(C2CCN(CCCn3c(-c4ccccc4I)nc4ccccc43)CC2)c1` [Example 14, 2-(2-iodophenyl)-1-{3-[4-(3-acetylaminophenyl)piperidin-1-yl]propyl}-1H-benzimidazole], the IC50 is more than 10000 nM.

Turning to `CC(=O)Nc1cccc(C2CCN(CCCn3c(-c4ccc5c(c4)OCO5)nc4ccccc43)CC2)c1` [Example 70, 2-(benzo[1,3]dioxol-5-yl)-1-{3-[4-(3-acetylaminophenyl)piperidin-1-yl]propyl}-1H-benzimidazole], the IC50 is 12 nM.

Turning to `CCCCc1nc2cc(Br)c(C)nc2n1CCCN1CCC(c2cccc(NC(C)=O)c2)CC1` [Example 94, 6-bromo-2-butyl-5-methyl-3-{3-[4-(3-acetylaminophenyl)piperidin-1-yl]propyl}-3H-imidazo[4,5-b]pyridine], the IC50 was 3 nM.

As for `CC(=O)Nc1cccc(C2CCN(CCCn3c(-c4ccccc4Cl)nc4cc(C)c(C)cc43)CC2)c1` [Example 37, 2-(2-chlorophenyl)-1-{3-[4-(3-acetylaminophenyl)piperidin-1-yl]propyl}-5,6-dimethyl-1H-benzimidazole], the IC50 turned out to be 39 nM.

For `CC(=O)Nc1cccc(C2CCN(CCCn3c(-c4ccc(Cl)cc4)nc4cc(C(N)=O)ccc43)CC2)c1` [Example 60, 2-(4-chlorophenyl)-1-{3-[4-(3-acetylaminophenyl)piperidin-1-yl]propyl}-5-carbamoyl-1H-benzimidazole], the concentration for half-maximal inhibition (IC50) amounted to 8 nM.

As for `COc1ccc(-c2nc3ccccc3n2CCCN2CCC(c3cccc(NC(C)=O)c3)CC2)c(OC)c1` [Example 58, 2-(2,4-dimethoxyphenyl)-1-{3-[4-(3-acetylaminophenyl)piperidin-1-yl]propyl}-1H-benzimidazole], the IC50 came to 22 nM.

For the compound `CC(=O)Nc1cccc(C2CCN(CCCn3c(-c4ccc(Cl)cc4)nc4cc(F)ccc43)CC2)c1` [Example 83, 2-(4-chlorophenyl)-1-{3-[4-(3-acetylaminophenyl)piperidin-1-yl]propyl}-5-fluoro-1H-benzimidazole], the IC50 is 70 nM.

With `CC(=O)Nc1cccc(C2CCN(CCCn3c(Cc4cccnc4)nc4ccccc43)CC2)c1` [Example 126, 2-(pyridin-3-ylmethyl)-1-{3-[4-(3-acetamidophenyl)piperidin-1-yl]propyl}-1H-benzimidazole], the IC50 was found to be 47 nM.

With `CC(=O)Nc1cccc(C2CCN(CCCCn3c(-c4ccc(Cl)cc4)nc4ccccc43)CC2)c1` [Example 6, 2-(4-chlorophenyl)-1-{4-[4-(3-acetylaminophenyl)piperidin-1-yl]butyl}-1H-benzimidazole], the IC50 worked out at 1 nM.

As for `CC(=O)Nc1cccc(C2CCN(CCCn3c(-c4ccc(Cl)cc4)nc4ccc(C#N)cc43)CC2)c1` [Example 82, 2-(4-chlorophenyl)-1-{3-[4-(3-acetylaminophenyl)piperidin-1-yl]propyl}-6-cyano-1H-benzimidazole], the IC50 stood at 70 nM.

For the compound `CC(=O)Nc1cccc(C2CCN(CCCn3c(-c4ccc(F)c(F)c4)nc4ccccc43)CC2)c1` [Example 50, 2-(3,4-difluorophenyl)-1-{3-[4-(3-acetylaminophenyl)piperidin-1-yl]propyl}-1H-benzimidazole], the IC50 amounted to 4 nM.

Turning to `CC(=O)Nc1cccc(C2CCN(CCCn3c(-c4ccccc4Cl)nc4ccc([N+](=O)[O-])cc43)CC2)c1` [Example 40, 2-(2-chlorophenyl)-1-{3-[4-(3-acetylaminophenyl)piperidin-1-yl]propyl}-6-nitro-1H-benzimidazole], the IC50 is 82 nM.

As to `CC(=O)Nc1cccc(C2CCN(CCCn3c(-c4cccnc4)nc4ccccc43)CC2)c1` [Example 105, 2-(pyridin-3-yl)-1-{3-[4-(3-acetamidophenyl)piperidin-1-yl]propyl}-1H-benzimidazole], the IC50 amounted to 60 nM.

Regarding `CC(=O)Nc1cccc(C2CCN(CCCn3c(-c4ccc(Cl)nc4)nc4ccccc43)CC2)c1` [Example 113, 2-(6-chloropyridin-3-yl)-1-{3-[4-(3-acetamidophenyl)piperidin-1-yl]propyl}-1H-benzimidazole], the half-maximal inhibitory concentration (IC50) came to 1 nM.

As to `CC(=O)Nc1cccc(C2CCN(CCCCCn3c(-c4ccccc4)nc4ccccc43)CC2)c1` [Example 7, 2-phenyl-1-{5-[4-(3-acetylaminophenyl)piperidin-1-yl]pentyl}-1H-benzimidazole], the IC50 amounted to 74 nM.
